Assay results from BindingDB's records for doi:10.1016/j.bmcl.2005.09.045 (University of Leeds, 2006).

Molecular target: T1, Dihydroorotate dehydrogenase (quinone), mitochondrial (Plasmodium falciparum (isolate 3D7), UniProt Q08210)
T1 sequence (Q08210 whole entry): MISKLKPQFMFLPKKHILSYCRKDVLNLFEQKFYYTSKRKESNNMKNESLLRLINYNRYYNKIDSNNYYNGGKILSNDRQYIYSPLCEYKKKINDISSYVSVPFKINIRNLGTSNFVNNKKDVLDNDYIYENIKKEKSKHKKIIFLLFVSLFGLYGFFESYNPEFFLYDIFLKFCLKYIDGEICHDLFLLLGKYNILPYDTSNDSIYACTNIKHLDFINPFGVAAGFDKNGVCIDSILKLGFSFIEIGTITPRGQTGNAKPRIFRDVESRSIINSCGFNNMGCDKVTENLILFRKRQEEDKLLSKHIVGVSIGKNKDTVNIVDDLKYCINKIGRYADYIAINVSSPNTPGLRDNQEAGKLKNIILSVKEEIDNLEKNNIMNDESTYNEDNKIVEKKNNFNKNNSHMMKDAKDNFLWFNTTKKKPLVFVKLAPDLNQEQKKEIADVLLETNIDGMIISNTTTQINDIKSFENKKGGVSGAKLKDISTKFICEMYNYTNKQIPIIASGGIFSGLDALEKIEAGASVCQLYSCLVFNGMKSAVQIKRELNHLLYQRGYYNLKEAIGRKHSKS
Assay: DHODH Inhibition Assay
Conditions: pH 8; 25 °C
Experimental: The assays were carried out by using a colorimetric DCIP method, which uses the colorimetric reagent 2, 6-dichlorophenolindophenol as the final electron acceptor. DCIP reduction is stoichiometrically equivalent to oxidation of dihydroorotate. Changes in absorbance were quantified in triplicate on a plate reader and data were analyzed to measure the reduction of DCIP as a decrease in absorbance at 600 nm. The data were then processed with Graphpad Prism to determine the IC50 and the apparent enzyme inhibition constant (Ki) for each inhibitor. Ki values were calculated using the Cheng-Prusoff equation with the Km for CoQD of 13 uM and 15 uM for PfDHODH and HsDHODH respectively.

Row | SMILES | IC50 [µM]
1 | O=C(Nc1ccccc1C(=O)O)c1ccc2ccccc2c1 [2-(naphthalene-2-amido)benzoic acid] | > 200
2 | CN(C(=O)c1ccc2ccccc2c1)c1ccccc1C(=O)O [2-[methyl(naphthalene-2-)amido]benzoic acid] | > 200
